The inhibition is the drop in the measured response relative to a control, in per cent. The term IC50 denotes the point on the concentration scale where inhibition reaches its midpoint. Higher therefore signals a need for much substance.

The values that follow come from PMC12526203, “Multicomponent Synthesis of Multi-Target Quinazolines Modulating Cholinesterase, Oxidative Stress, and Amyloid Aggregation Activities for the Therapy of Alzheimer’s Disease” (Molecules, 2025).

Values joined by “and” are separate entries in the source; they are usually repeats but may differ in a detail not shown here. Equal entries are not always repeated. “Also recorded” adds a separate entry of the source.

T2 sequence (O42275 24-633): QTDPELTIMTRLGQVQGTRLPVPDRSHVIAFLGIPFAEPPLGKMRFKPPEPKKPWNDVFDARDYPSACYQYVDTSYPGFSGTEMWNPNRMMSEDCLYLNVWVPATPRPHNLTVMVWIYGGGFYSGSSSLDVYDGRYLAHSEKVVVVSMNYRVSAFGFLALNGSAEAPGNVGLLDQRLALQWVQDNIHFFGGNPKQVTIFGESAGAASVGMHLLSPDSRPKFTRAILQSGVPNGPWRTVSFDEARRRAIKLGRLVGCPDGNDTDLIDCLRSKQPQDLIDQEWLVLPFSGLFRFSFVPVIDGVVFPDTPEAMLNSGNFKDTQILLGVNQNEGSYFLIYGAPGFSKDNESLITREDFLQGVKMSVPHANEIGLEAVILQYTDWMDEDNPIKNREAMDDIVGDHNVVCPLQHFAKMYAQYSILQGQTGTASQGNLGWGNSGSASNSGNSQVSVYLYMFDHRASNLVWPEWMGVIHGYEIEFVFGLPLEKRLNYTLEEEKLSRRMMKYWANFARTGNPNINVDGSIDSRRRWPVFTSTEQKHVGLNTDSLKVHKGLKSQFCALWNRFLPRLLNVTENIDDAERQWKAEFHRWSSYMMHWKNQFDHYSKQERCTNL
T1 sequence (P05067 672-713): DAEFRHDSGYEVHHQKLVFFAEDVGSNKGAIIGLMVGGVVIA

One assay concerns the target T1, Aβ1–42 (Homo sapiens, UniProt P05067).
T1 construct: purchased Merck
The experiment in a line: Aβ1–42 self-aggregation, thioflavin T-based fluorometric assay. The assay is classed as biochemical. As to conditions: ThT assay. On the procedure: Curcumin was used as a positive control.
A ThT fluorescence assay evaluated the effect of the test compounds on Aβ1−42 fibril formation. Aβ stock solutions were diluted to 50 μM in ultrapure water before use. […] Control samples were prepared by replacing Aβ with 50 mM phosphate buffer (pH 7.4), with or without the inhibitors. After incubation, samples were diluted to 360 μL with 50 mM glycine-NaOH buffer (pH 8.0) containing thioflavin T (5 μM).
For `COc1cc(Nc2nc(C)nc3ccccc23)cc(OC)c1` [3e, 2-methyl-4-(3,5-Dimethoxyphenyl)aminoquinazoline], the “Inhibition of Aβ1–42 self-aggregation (in words)” value is given as “did not display measurable activity”.

Regarding `Cc1nc(Nc2ccccc2)c2ccccc2n1` [3b, 2-Methyl-4-anilinoquinazoline], the “Inhibition of Aβ1–42 self-aggregation (in words)” value was “did not display measurable activity”.

In the case of `Clc1ccc(Nc2ncnc3ccccc23)cc1` [3p, 4-(4-Chlorophenyl)aminoquinazoline], the “Inhibition of Aβ1–42 self-aggregation (in words)” value was “inactive; also recorded: did not display measurable activity”.

With `COc1cc(Nc2ncnc3ccccc23)cc(OC)c1` [3d, 4-(3,5-Dimethoxyphenyl)aminoquinazoline], the “Inhibition of Aβ1–42 self-aggregation (in words)” value was “did not display measurable activity”.

The same assay, now with this note: ThT assay; [Aβ] = [Inhibitor] = 50 μM (Figure 1 legend).
`CCc1nc(Nc2cc(OC)cc(OC)c2)c2ccccc2n1` [3f, 2-ethyl-4-(3,5-Dimethoxyphenyl)aminoquinazoline] returned an inhibition at 50 µM (stock) of 13.6%.

The compound `Cc1nc(Nc2ccc([N+](=O)[O-])cc2)c2ccccc2n1` [3o, 2-Methyl-4-(4-nitrophenyl)aminoquinazoline] returned an inhibition at 50 µM (stock) of 13.7%.

`COc1cc(/C=C/C(=O)CC(=O)/C=C/c2ccc(O)c(OC)c2)ccc1O` [Curcumin, reference compound] came in with an inhibition at 50 µM (stock) of 58%.

As for `Cc1cccc(Nc2ncnc3ccccc23)c1C` [3l, 4-(2,3-Dimethylphenyl)aminoquinazoline], the inhibition at 50 µM (stock) was found to be 8.74%.

As for `c1ccc(Nc2ncnc3ccccc23)cc1` [3a, 4-anilinoquinazoline], the inhibition at 50 µM (stock) was 10.3%.

The compound `CCc1nc(Nc2ccc(Cl)cc2)c2ccccc2n1` [3q, 2-ethyl-4-(4-Chlorophenyl)aminoquinazoline] had an inhibition at 50 µM (stock) of 1.45%.

Compound `COc1ccc(Nc2ncnc3ccccc23)cc1OC` [3g, 4-(3,4-Dimethoxyphenyl)aminoquinazoline] displayed an inhibition at 50 µM (stock) of 14.7%.

Compound `Cc1ccc(Nc2ncnc3ccccc23)cc1` [3i, 4-(p-Tolyl)aminoquinazoline] returned an inhibition at 50 µM (stock) of 7.1%.

Compound `CCc1nc(Nc2ccc(OC)c(OC)c2)c2ccccc2n1` [3h, 2-ethyl-4-(3,4-Dimethoxyphenyl)aminoquinazoline] showed an inhibition at 50 µM (stock) of 36.7%.

For `Cc1nc(Nc2cccc(C)c2C)c2ccccc2n1` [3m, 2-methyl-4-(2,3-Dimethylphenyl)aminoquinazoline], the inhibition at 50 µM (stock) is 15.8%.

`CCc1nc(Nc2ccc(C)cc2)c2ccccc2n1` [3k, 2-Ethyl-4-(p-tolyl)aminoquinazoline]: the inhibition at 50 µM (stock) turned out to be 9.4%.

For the compound `Cc1ccc(Nc2nc(C)nc3ccccc23)cc1` [3j, 2-Methyl-4-(p-tolyl)aminoquinazoline], the inhibition at 50 µM (stock) was determined as 21.2%.

The compound `O=[N+]([O-])c1ccc(Nc2ncnc3ccccc23)cc1` [3n, 4-(4-Nitrophenyl)aminoquinazoline] came in with an inhibition at 50 µM (stock) of 6.57%.

The next assay concerns the target T2, Electrophorus electricus AChE (EeAChE) (Electrophorus electricus, UniProt O42275).
T2 construct: purchased Merck
The experiment in a line: biochemical. The conditions noted are these: Ellman method, pH 8.0. On the procedure:
(§1) The inhibitory activities of the tested compounds against EeAChE and eqBuChE were determined using the spectrophotometric procedure based on Ellman’s method. […] After a pre-incubation step, acetylthiocholine iodide (105 µL, final concentration 0.35 mM) or butyrylthiocholine iodide (150 µL, final concentration 0.5 mM) was added, and the mixture was incubated for an additional 15 min.
For orientation: Ellman's reagent forms a yellow product with free thiols.
`COc1cc(Nc2nc(C)nc3ccccc23)cc(OC)c1` [3e, 2-methyl-4-(3,5-Dimethoxyphenyl)aminoquinazoline] gave an IC50 of 6.04 ± 1.05 µM.

With `CCc1nc(Nc2ccc(OC)c(OC)c2)c2ccccc2n1` [3h, 2-ethyl-4-(3,4-Dimethoxyphenyl)aminoquinazoline], the IC50 is 6.67 µM and 6.61 µM.

The same assay, now with this note: read-out: % inhibition of EeAChE at 10 μM (footnote c).
Take `CCc1nc(Nc2cc(OC)cc(OC)c2)c2ccccc2n1` [3f, 2-ethyl-4-(3,5-Dimethoxyphenyl)aminoquinazoline]: the inhibition at 10 µM was less than 50%.

Take `Cc1nc(Nc2ccc([N+](=O)[O-])cc2)c2ccccc2n1` [3o, 2-Methyl-4-(4-nitrophenyl)aminoquinazoline]: the inhibition at 10 µM is less than 50%.

For `CCc1nc(Nc2ccccc2)c2ccccc2n1` [3c, 2-Ethyl-4-anilinoquinazoline], the inhibition at 10 µM was less than 50%.

Regarding `Cc1nc(Nc2ccccc2)c2ccccc2n1` [3b, 2-Methyl-4-anilinoquinazoline], the inhibition at 10 µM was less than 50%.

For `Cc1cccc(Nc2ncnc3ccccc23)c1C` [3l, 4-(2,3-Dimethylphenyl)aminoquinazoline], the inhibition at 10 µM is less than 50%.

Turning to `Clc1ccc(Nc2ncnc3ccccc23)cc1` [3p, 4-(4-Chlorophenyl)aminoquinazoline], the inhibition at 10 µM is less than 50%.

In the case of `c1ccc(Nc2ncnc3ccccc23)cc1` [3a, 4-anilinoquinazoline], the inhibition at 10 µM was less than 50%.

Take `CCc1nc(Nc2ccc(Cl)cc2)c2ccccc2n1` [3q, 2-ethyl-4-(4-Chlorophenyl)aminoquinazoline]: the inhibition at 10 µM was less than 50%.

Take `COc1ccc(Nc2ncnc3ccccc23)cc1OC` [3g, 4-(3,4-Dimethoxyphenyl)aminoquinazoline]: the inhibition at 10 µM is less than 50%.

For the compound `COc1cc(Nc2ncnc3ccccc23)cc(OC)c1` [3d, 4-(3,5-Dimethoxyphenyl)aminoquinazoline], the inhibition at 10 µM is less than 50%.

Turning to `Cc1ccc(Nc2ncnc3ccccc23)cc1` [3i, 4-(p-Tolyl)aminoquinazoline], the inhibition at 10 µM is less than 50%.

For the compound `Cc1nc(Nc2cccc(C)c2C)c2ccccc2n1` [3m, 2-methyl-4-(2,3-Dimethylphenyl)aminoquinazoline], the inhibition at 10 µM is less than 50%.

As for `CCc1nc(Nc2ccc(C)cc2)c2ccccc2n1` [3k, 2-Ethyl-4-(p-tolyl)aminoquinazoline], the inhibition at 10 µM is less than 50%.

As for `Cc1ccc(Nc2nc(C)nc3ccccc23)cc1` [3j, 2-Methyl-4-(p-tolyl)aminoquinazoline], the inhibition at 10 µM is less than 50%.

For `O=[N+]([O-])c1ccc(Nc2ncnc3ccccc23)cc1` [3n, 4-(4-Nitrophenyl)aminoquinazoline], the inhibition at 10 µM is less than 50%.

System in the next assay: not given
Test: not given
As to conditions: reported as a standard antioxidant; cited from earlier work.
For the compound `COc1cc(/C=C/C(=O)O)ccc1O` [ferulic acid], the ORAC is recorded as 3.7 TE.

System in a further assay: not listed separately
The experiment in a line: ORAC-FL (Oxygen Radical Absorbance Capacity by Fluorescence) assay. The conditions noted are these: Trolox equivalents. The procedure: Briefly, fluorescein and the test compound were pre-incubated in a black 96-well microplate (Nunc) at 37 °C for 15 min. Then, 2,2′-azobis(amidinopropane) dihydrochloride was rapidly added using the integrated injector of a Varioskan Flash plate reader (Thermo Scientific). […] Each experiment was conducted in triplicate, with a minimum of three independent assays performed per compound.
Take `CCc1nc(Nc2cc(OC)cc(OC)c2)c2ccccc2n1` [3f, 2-ethyl-4-(3,5-Dimethoxyphenyl)aminoquinazoline]: the ORAC came to 1.29 ± 0.08 TE.

Regarding `Cc1nc(Nc2ccc([N+](=O)[O-])cc2)c2ccccc2n1` [3o, 2-Methyl-4-(4-nitrophenyl)aminoquinazoline], the ORAC came out at 0.36 ± 0.01 TE.

For the compound `COc1cc(Nc2nc(C)nc3ccccc23)cc(OC)c1` [3e, 2-methyl-4-(3,5-Dimethoxyphenyl)aminoquinazoline], the ORAC worked out at 1.81 ± 0.19 TE.

In the case of `Cc1nc(Nc2ccccc2)c2ccccc2n1` [3b, 2-Methyl-4-anilinoquinazoline], the ORAC is reported as 0.51 ± 0.02 TE.

Take `Cc1cccc(Nc2ncnc3ccccc23)c1C` [3l, 4-(2,3-Dimethylphenyl)aminoquinazoline]: the ORAC worked out at 0.32 ± 0.05 TE.

On to `Clc1ccc(Nc2ncnc3ccccc23)cc1` [3p, 4-(4-Chlorophenyl)aminoquinazoline], for which the ORAC is 0.40 ± 0.07 TE.

As to `COc1ccc(Nc2ncnc3ccccc23)cc1OC` [3g, 4-(3,4-Dimethoxyphenyl)aminoquinazoline], the ORAC was 5.46 TE and 5.46 ± 0.11 TE.

Turning to `CCc1nc(Nc2ccc(OC)c(OC)c2)c2ccccc2n1` [3h, 2-ethyl-4-(3,4-Dimethoxyphenyl)aminoquinazoline], the ORAC is 5.73 TE and 5.73 ± 0.39 TE.

On to `CCc1nc(Nc2ccc(C)cc2)c2ccccc2n1` [3k, 2-Ethyl-4-(p-tolyl)aminoquinazoline], for which the ORAC is on record as 0.58 ± 0.04 TE.

As for `Cc1ccc(Nc2nc(C)nc3ccccc23)cc1` [3j, 2-Methyl-4-(p-tolyl)aminoquinazoline], the ORAC is recorded as 0.75 ± 0.08 TE.

The target of a further assay is T3, equine BuChE (eqBuChE) (Equus caballus, UniProt P81908).
T3 construct: purchased Merck
T3 sequence (P81908 whole entry): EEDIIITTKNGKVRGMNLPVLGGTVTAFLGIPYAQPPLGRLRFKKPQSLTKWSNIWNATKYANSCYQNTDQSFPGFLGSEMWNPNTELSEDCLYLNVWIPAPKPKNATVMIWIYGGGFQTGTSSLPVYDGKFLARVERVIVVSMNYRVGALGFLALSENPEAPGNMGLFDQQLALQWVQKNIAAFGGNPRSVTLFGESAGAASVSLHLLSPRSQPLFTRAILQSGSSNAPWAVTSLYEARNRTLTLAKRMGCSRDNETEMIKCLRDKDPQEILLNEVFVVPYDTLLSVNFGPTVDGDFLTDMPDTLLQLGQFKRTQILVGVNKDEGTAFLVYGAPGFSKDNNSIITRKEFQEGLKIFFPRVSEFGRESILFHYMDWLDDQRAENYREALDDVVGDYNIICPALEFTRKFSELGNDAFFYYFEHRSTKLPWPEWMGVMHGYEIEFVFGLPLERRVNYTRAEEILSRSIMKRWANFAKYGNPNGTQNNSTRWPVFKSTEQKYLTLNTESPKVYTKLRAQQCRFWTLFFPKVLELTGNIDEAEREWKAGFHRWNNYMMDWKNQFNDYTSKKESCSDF
Put plainly: biochemical. The assay is classed as biochemical. The conditions noted are these: Ellman method. The procedure: as §1
On to `CCc1nc(Nc2ccc(OC)c(OC)c2)c2ccccc2n1` [3h, 2-ethyl-4-(3,4-Dimethoxyphenyl)aminoquinazoline], for which the “eqBuChE inhibition (in words)” value was “inactive”.

The same assay, now with this note: Ellman method, pH 8.0.
As to `CCc1nc(Nc2cc(OC)cc(OC)c2)c2ccccc2n1` [3f, 2-ethyl-4-(3,5-Dimethoxyphenyl)aminoquinazoline], inhibition was half-maximal at 8.5 ± 1.16 µM (IC50).

As to `COc1cc(Nc2nc(C)nc3ccccc23)cc(OC)c1` [3e, 2-methyl-4-(3,5-Dimethoxyphenyl)aminoquinazoline], inhibition was half-maximal at 9.43 ± 1.13 µM (IC50).

As for `CCc1nc(Nc2ccccc2)c2ccccc2n1` [3c, 2-Ethyl-4-anilinoquinazoline], the half-maximal inhibitory concentration (IC50) worked out at 5.34 ± 0.15 µM. Compared with the last compound, the IC50 is about 1.8-fold lower.

Turning to `CCc1nc(Nc2ccc(Cl)cc2)c2ccccc2n1` [3q, 2-ethyl-4-(4-Chlorophenyl)aminoquinazoline], half-maximal inhibition (IC50) required 8.64 ± 0.3 µM.

The same assay, now with this note: read-out: % inhibition of eqBuChE at 10 μM (footnote c).
In the case of `Cc1nc(Nc2ccc([N+](=O)[O-])cc2)c2ccccc2n1` [3o, 2-Methyl-4-(4-nitrophenyl)aminoquinazoline], the inhibition at 10 µM is less than 50%.

As for `Cc1nc(Nc2ccccc2)c2ccccc2n1` [3b, 2-Methyl-4-anilinoquinazoline], the inhibition at 10 µM was less than 50%.

With `Cc1cccc(Nc2ncnc3ccccc23)c1C` [3l, 4-(2,3-Dimethylphenyl)aminoquinazoline], the inhibition at 10 µM was less than 50%.

For `Clc1ccc(Nc2ncnc3ccccc23)cc1` [3p, 4-(4-Chlorophenyl)aminoquinazoline], the inhibition at 10 µM was less than 50%.

On to `c1ccc(Nc2ncnc3ccccc23)cc1` [3a, 4-anilinoquinazoline], for which the inhibition at 10 µM was less than 50%.

On to `COc1ccc(Nc2ncnc3ccccc23)cc1OC` [3g, 4-(3,4-Dimethoxyphenyl)aminoquinazoline], for which the inhibition at 10 µM was less than 50%.

For `COc1cc(Nc2ncnc3ccccc23)cc(OC)c1` [3d, 4-(3,5-Dimethoxyphenyl)aminoquinazoline], the inhibition at 10 µM is less than 50%.

For the compound `Cc1ccc(Nc2ncnc3ccccc23)cc1` [3i, 4-(p-Tolyl)aminoquinazoline], the inhibition at 10 µM is less than 50%.

As to `CCc1nc(Nc2ccc(OC)c(OC)c2)c2ccccc2n1` [3h, 2-ethyl-4-(3,4-Dimethoxyphenyl)aminoquinazoline], the inhibition at 10 µM was less than 50%.

Take `Cc1nc(Nc2cccc(C)c2C)c2ccccc2n1` [3m, 2-methyl-4-(2,3-Dimethylphenyl)aminoquinazoline]: the inhibition at 10 µM was less than 50%.

With `CCc1nc(Nc2ccc(C)cc2)c2ccccc2n1` [3k, 2-Ethyl-4-(p-tolyl)aminoquinazoline], the inhibition at 10 µM is less than 50%.

As to `Cc1ccc(Nc2nc(C)nc3ccccc23)cc1` [3j, 2-Methyl-4-(p-tolyl)aminoquinazoline], the inhibition at 10 µM was less than 50%.

With `O=[N+]([O-])c1ccc(Nc2ncnc3ccccc23)cc1` [3n, 4-(4-Nitrophenyl)aminoquinazoline], the inhibition at 10 µM was less than 50%.
